This note sets out measurements from ChEMBL document CHEMBL1201862, “PubChem BioAssay data set” (2004).

What all share (assay): NCI anticancer screen, dose series, 48 h
Experiment [1] has as its system HT-29.
For experiment [2], the system named is U-251.
The test system of experiment [3] is SR.
In experiment [4] the test system is OVCAR-8.
For experiment [5], the system named is MDA-MB-435.
The subject of experiment [6] is HL-60.
In experiment [7] the test system is OVCAR-3.
In experiment [8] the test system is NCI/ADR-RES.
The subject of experiment [9] is KM12.
The subject of experiment [10] is UACC-257.
In experiment [11] the test system is UO-31.
Experiment [12] deals with SK-MEL-28.
Experiment [13] concerns MDA-N.
Experiment [14] has as its system RXF 393.
Experiment [15] relates to CCRF-CEM.
In experiment [16] the test system is HOP-62.
In experiment [17] the test system is EKVX.
In experiment [18] the test system is 786-0.
Experiment [19] relates to Malme-3M.
Experiment [20] has as its system NCI-H522.

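1) Cells in 96-well plates. 2) Compound, 48 h, 5 concentrations. 3) Linear interpolation between surrounding doses. 4) Unreached endpoint = highest concentration. GI50: concentration for 50% inhibition of growth.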 The source made the active and inactive calls. Rule as the data show it: active = GI50 up to about 1.1 µM and inactive = higher.

With `CCOC(O)C(F)(F)F` (centres undefined), the GI50 in [1], in [2], in [3], in experiment [4], in experiment [5] and in experiment [6] was > 100 µM (inactive) throughout. Moreover, the GI50 in [7], in [8], in [9], in experiment [10], in [11] and in experiment [12] was > 100 µM (inactive) each time. In addition, the GI50 in experiment [13], in [14] and in [15] was > 100 µM (inactive) in each case.

`CCOC(=O)c1csc(NC(=O)CCN2CCN(C)CC2)n1`: the GI50 in experiment [1] was 62.1 µM (inactive); in experiment [2], > 100 µM (inactive); in experiment [3], 74.3 µM (inactive); in experiment [4], > 100 µM (inactive); in experiment [5] it was > 100 µM (inactive); in [6], 75.5 µM (inactive). For the same compound, the GI50 in experiment [7], in [8], in experiment [16], in experiment [9], in [10] and in [11] was > 100 µM (inactive) each time. The GI50 in experiment [12] was > 100 µM (inactive); in experiment [13], > 100 µM (inactive); in experiment [14], > 100 µM (inactive); in experiment [15], 54.8 µM (inactive).

Take `CCOC(=O)c1csc(NC(=O)CN2CCCC2)n1`: the GI50 in [1], in [2], in experiment [3], in [4], in experiment [5] and in experiment [6] was > 100 µM (inactive) in each case. For the same compound, the GI50 in experiment [7], in experiment [8], in experiment [16], in experiment [9], in experiment [10] and in experiment [11] was > 100 µM (inactive) throughout. Besides, the GI50 in experiment [17], in experiment [12], in experiment [13], in experiment [14] and in experiment [15] was > 100 µM (inactive) throughout.

In the case of `Cn1c(=O)n2n(c1=O)C(C)(C13CC4CC(CC(C4)C1)C3)C13CC4CC(CC1C4)CC23` (centres undefined), the GI50 was > 100 µM (inactive) in experiment [1]; > 100 µM (inactive) in [2]; > 100 µM (inactive) in [3]; > 100 µM (inactive) in [4]; > 100 µM (inactive) in experiment [5]; 6.76 µM (inactive) in experiment [6]. Further, the GI50 in [7], in [8], in [16], in [9], in [10] and in [11] was > 100 µM (inactive) each time. Also, the GI50 in experiment [17], in [12], in [13] and in experiment [15] was > 100 µM (inactive) throughout.

Turning to `CN(C)c1cccc2c1C(=O)C=CC21CCc2ccc(N(C)C)c3c(N(C)C)ccc1c23` (centres undefined), the GI50 in experiment [1] was 13.1 µM (inactive); in experiment [3], 12 µM (inactive); in [4], 13.7 µM (inactive); in experiment [5], 10.3 µM (inactive); in experiment [6] it was 5.01 µM (inactive); in experiment [18], 12.7 µM (inactive). The GI50 in experiment [7] is 8.34 µM (inactive); in [8], 56.8 µM (inactive); in experiment [19] it was 11.5 µM (inactive); in experiment [16], 14.5 µM (inactive); in [9] it was 14.8 µM (inactive); in [10] it was 11.9 µM (inactive). The GI50 in experiment [11] is 11.9 µM (inactive); in experiment [17], 20 µM (inactive); in [12], 15.4 µM (inactive); in [13] it was 11.2 µM (inactive); in [14], 7.38 µM (inactive); in experiment [15] it was 6.41 µM (inactive).

On to `O=C1CC2(CCC(O)(c3ccc4ccccc4c3)C(C(=O)c3ccc4ccccc4c3)C2)C(=O)c2ccccc2N1` (centres undefined), for which the GI50 in experiment [1], in experiment [2], in experiment [3], in experiment [4], in [5] and in experiment [6] was > 100 µM (inactive) each time. Also, the GI50 in [7], in experiment [8], in experiment [19], in [16], in [10] and in [11] was > 100 µM (inactive) each time. Moreover, the GI50 in [17], in experiment [12], in experiment [14] and in [15] was > 100 µM (inactive) throughout.

Turning to `Cc1c(Cc2ccccc2)n(COCCCO)c(=O)[nH]c1=O`, the GI50 in [1], in [20], in [2], in experiment [4], in experiment [5] and in experiment [18] was > 100 µM (inactive) each time. Besides, the GI50 in experiment [7], in [8], in experiment [19], in experiment [16], in experiment [9] and in experiment [10] was > 100 µM (inactive) each time. Also, the GI50 in experiment [11], in experiment [17], in [12], in experiment [13], in experiment [14] and in experiment [15] was > 100 µM (inactive) in each case.

For the compound `C[N+](C)(C)/C=N\c1cccc2c1CCCC2`, the GI50 in [1] was 58.1 µM (inactive); in experiment [2], 88.3 µM (inactive); in experiment [3], 16 µM (inactive); in experiment [4] it was > 100 µM (inactive); in experiment [5], 90.8 µM (inactive); in experiment [6] it was 0.0885 µM (active). Further, the GI50 in [18] is > 100 µM (inactive); in [7] it was > 100 µM (inactive); in experiment [8], > 100 µM (inactive); in experiment [19], > 100 µM (inactive); in experiment [16], > 100 µM (inactive); in [10] it was 45.1 µM (inactive). In addition, the GI50 in [11] is > 100 µM (inactive); in experiment [17] it was > 100 µM (inactive); in experiment [12], > 100 µM (inactive); in experiment [13] it was > 100 µM (inactive); in [14], > 100 µM (inactive); in [15] it was 50.7 µM (inactive).

For the compound `N#Cc1c(-c2ccccc2)c(CN2CCCCC2)c(=O)n2c1[nH]c1ccccc12`, the GI50 in experiment [20] is 24.3 µM (inactive); in experiment [2] it was 27.1 µM (inactive); in [4], 30.3 µM (inactive); in [5], 41.4 µM (inactive); in [18], 27.9 µM (inactive); in experiment [7], 20.4 µM (inactive). In addition, the GI50 in [8] was 43.2 µM (inactive); in experiment [19], 62.2 µM (inactive); in experiment [16], 20.7 µM (inactive); in experiment [9], 30.1 µM (inactive); in experiment [10] it was 42 µM (inactive); in experiment [11], 26.7 µM (inactive). The GI50 in experiment [12] was 69.5 µM (inactive); in experiment [13] it was 27.5 µM (inactive); in experiment [14] it was 32.5 µM (inactive); in experiment [15], 25.9 µM (inactive).

For the compound `O=C1CCCC2=C1CC1=C(CCCC1=O)N2c1cccc([N+](=O)[O-])c1`, the GI50 in experiment [1], in experiment [2], in [3], in [4], in experiment [6] and in [18] was > 100 µM (inactive) each time. Further, the GI50 in experiment [7], in experiment [8], in experiment [9], in experiment [11], in experiment [17] and in experiment [12] was > 100 µM (inactive) in each case. The GI50 in experiment [14] is 67.9 µM (inactive); in experiment [15], > 100 µM (inactive).

Consider `CN(C)CCCn1c(-c2ccc(Br)cc2)cs/c1=N\c1ccccc1`, for which the GI50 is 49.2 µM (inactive) in experiment [2]; 14 µM (inactive) in [3]; 15.9 µM (inactive) in experiment [4]; 18.7 µM (inactive) in [5]; 1.4 µM (inactive) in experiment [6]; 10.6 µM (inactive) in experiment [7]. For the same compound, the GI50 in experiment [8] was 14.3 µM (inactive); in experiment [16], 12.9 µM (inactive); in [9], 13 µM (inactive); in [10] it was 14.6 µM (inactive); in experiment [11], 10.4 µM (inactive); in experiment [17], 10.8 µM (inactive). For the same compound, the GI50 was 18.5 µM (inactive) in experiment [12], 13.8 µM (inactive) in experiment [13], 12.9 µM (inactive) in experiment [14] and 28.8 µM (inactive) in experiment [15].

For `COCCN(C(=O)c1ccccc1)C1CCC(=O)c2[nH]c3ccccc3c21` (centres undefined), the GI50 in [1] is 9.98 µM (inactive); in [20], 2.59 µM (inactive); in experiment [2] it was 2.08 µM (inactive); in [3] it was 3.2 µM (inactive); in experiment [4], 6.85 µM (inactive); in experiment [5] it was 6.87 µM (inactive). In addition, the GI50 is 8.87 µM (inactive) in [6]; 3.4 µM (inactive) in experiment [18]; 12.5 µM (inactive) in experiment [7]; 19.3 µM (inactive) in experiment [8]; 7.21 µM (inactive) in experiment [19]; 5.22 µM (inactive) in experiment [16]. Further, the GI50 in [9] was 8.41 µM (inactive); in [10], > 46.9 µM (inactive); in [11] it was 9.71 µM (inactive); in experiment [17] it was 10.7 µM (inactive); in experiment [12], 6.07 µM (inactive); in experiment [14] it was 5.83 µM (inactive). Also, the GI50 in experiment [15] was 3.64 µM (inactive).
